Reference: US6380216B1, “Use of (+)-α-(2,3-dimethoxyphenyl)-1-[2-(4-fluorophenyl) ethyl]-4-piperidinemethanol in treating depressive disorders and bipolar disorders” (Aventis Pharmaceuticals Inc., priority 1996, dated 2002)

What was measured:
[1] = test system: Male Wistar rats; assay: Chronic Mild Stress Model of Depression (CMS), sucrose intake
Excerpt: CMS uses mild stressors, such as food and water deprivation, small temperature changes, changes of cage mates, etc. Over a period of weeks of exposure to the mild stressors, the animals gradually reduce their consumption of a highly preferred sucrose solution which persists (in untreated animals) for several weeks following the cessation of stress.
Male Wistar rats were brought into the laboratory two months before the start of the experiment at which time they weighed aprroximately 300 grams. Except as described below, the animals were singly housed, with food an eater freely available, and maintained on a 12 hour light/dark cycle (lights on at 8 AM) at a temperature of 22±° C.
The animals were first trained to consume a 1% sucrose solution; training consisted of eight 1 hour baseline tests in which sucrose was presented, in the home cage, following 14 hours food and water deprivation; intake was measured by weighing pre-weighed bottles containing the sucrose solution at the end of the test. Subsequently, sucrose consumption was monitored, under similar conditions, at weekly intervals throughout the whole experiment.
On the basis of their sucrose intakes in the final baseline test, the animals were divided into two matched groups. One group of animals was subjected to a chronic mild stress procedure for a period of 9 consecutive weeks. Each week of stress regime consisted of: two periods of food or water deprivation (12 and 14 hour), two periods of 45 degree cage tilt (12 and 14 h), two periods of intermittent overnight illumination (lights on and off every 2 hours), two 14 hour periods of soled cage (200 ml water in sawdust bedding), two 14 hour periods of paired housing, two 14 hour periods of low intensity stroboscopic illumination (150 flashes/min). Stressors were applied continuously throughout the day and night, and scheduled randomly. […] They were deprived of food and water for the 14 hours preceding each sucrose test, but otherwise food and water were freely available in the home cage. […] All drug injections were in a volume of 1 ml/kg body weight. Drugs were administered at 10 AM and sucrose tests were carried out 24 hours following the last drug treatment. After five weeks, the treatments were terminated and after one week of withdrawal a final sucrose test was carried out. Stress was continued throughout the period of treatment and withdrawal.
Results were analyzed by multiple analysis of variance, followed by Fisher's LSD test for post hoc comparisons of means.

[2] = biological target: D2 (dopamine) receptor (Homo sapiens, UniProt P14416); assay: affinity for the D2 (dopamine) receptor in in vitro models; format: binding
Sequence of D2 (dopamine) receptor (P14416 whole entry): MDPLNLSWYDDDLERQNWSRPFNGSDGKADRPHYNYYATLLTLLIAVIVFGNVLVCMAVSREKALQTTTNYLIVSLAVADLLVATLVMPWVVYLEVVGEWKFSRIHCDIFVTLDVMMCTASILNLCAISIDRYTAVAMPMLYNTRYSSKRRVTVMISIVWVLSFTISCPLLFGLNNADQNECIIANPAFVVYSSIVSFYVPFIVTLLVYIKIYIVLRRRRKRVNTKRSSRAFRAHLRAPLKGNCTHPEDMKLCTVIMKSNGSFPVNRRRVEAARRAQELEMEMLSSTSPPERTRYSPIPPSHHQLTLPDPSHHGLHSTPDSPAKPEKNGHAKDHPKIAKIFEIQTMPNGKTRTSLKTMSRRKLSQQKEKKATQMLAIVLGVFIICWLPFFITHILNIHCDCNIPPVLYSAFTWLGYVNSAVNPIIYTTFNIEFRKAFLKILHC

[3] = biological target: D1 (dopamine) receptor (Homo sapiens, UniProt P21728); assay: affinity for the D1 (dopamine) receptor in in vitro models; format: binding
Sequence of D1 (dopamine) receptor (P21728 whole entry): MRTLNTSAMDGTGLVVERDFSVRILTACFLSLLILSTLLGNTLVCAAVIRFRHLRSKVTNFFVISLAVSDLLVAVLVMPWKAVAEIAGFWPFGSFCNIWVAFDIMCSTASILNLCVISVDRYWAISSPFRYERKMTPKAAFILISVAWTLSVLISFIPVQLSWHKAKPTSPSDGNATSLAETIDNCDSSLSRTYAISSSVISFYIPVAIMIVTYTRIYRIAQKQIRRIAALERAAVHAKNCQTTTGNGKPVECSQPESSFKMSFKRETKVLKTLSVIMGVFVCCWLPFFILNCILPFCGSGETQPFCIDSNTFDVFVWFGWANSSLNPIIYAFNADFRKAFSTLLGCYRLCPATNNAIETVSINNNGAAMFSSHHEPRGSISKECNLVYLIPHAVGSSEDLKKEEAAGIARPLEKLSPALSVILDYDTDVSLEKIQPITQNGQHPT

[4] = test system: α-1 receptor; assay: affinity for the α-1 receptor in in vitro models; format: binding
[5] = test system: cholinergic M1/M2 receptors; assay: affinity for the cholinergic M1/M2 receptors; format: binding
Excerpt: It is orally active, non-toxic at therapeutic doses and potent. It is also capable of being sealed-up for commercial synthesis. Additionally, neurochemical studies indicate that there is a serotonin/dopamine interaction following chronic administration of this compound as described in Life Sciences 56(25): 2209-2222 (1995), incorporated herein by reference. The combination of the foregoing characteristics produces a unique compound for treating patients having either Depressive Disorders of Bipolar Disorders.

SMILES	effect on sucrose intake in control animals ([1]; control (unstressed) rats, 10 mg/kg ip daily, five weeks)	weeks of treatment after which sucrose intake was significantly increased from Week 0 scores ([1]; stressed rats, 10 mg/kg ip daily)	sucrose intake after five weeks of treatment compared with controls ([1]; stressed rats, 10 mg/kg ip daily, Week 5)	effect on sucrose intake in stressed animals ([1]; stressed rats, 10 mg/kg ip daily, five weeks)	sucrose intake one week after withdrawal from the drug ([1]; stressed rats, 10 mg/kg ip, one week after withdrawal)	affinity for the D2 (dopamine) receptor [2]	affinity for the D1 (dopamine) receptor [3]	effect on sucrose intake in control animals ([1]; control (unstressed) rats, 0.002, 0.02 and 0.2 mg/kg orally daily, five weeks)	sucrose intakes one week after withdrawal from the treatment ([1]; control and stressed rats, 0.002, 0.02 and 0.2 mg/kg orally, one week after withdrawal)	weeks of treatment after which sucrose intake was significantly increased from initial scores (Week 0) ([1]; stressed rats, 0.02 mg/kg orally daily)	amount of sucrose solution drunk at the end of treatment period (Week 5) ([1]; stressed rats, 0.02 mg/kg orally daily, Week 5)	weeks of treatment after which sucrose intake was significantly increased from initial scores (Week 0) ([1]; stressed rats, 0.2 mg/kg orally daily)	amount of sucrose solution drunk at the end of treatment period (Week 5) ([1]; stressed rats, 0.2 mg/kg orally daily, Week 5)	effect on sucrose intake in stressed animals ([1]; stressed rats, 0.002, 0.02 and 0.2 mg/kg orally daily, five weeks (overall Treatment effect))	effect on sucrose intake throughout the whole treatment period ([1]; stressed rats, lowest dose 0.002 mg/kg orally daily, five weeks)	affinity for the α-1 receptor [4]	affinity for the cholinergic M1/M2 receptors [5]
CN(C)CCCN1c2ccccc2CCc2ccccc21 [Imipramine, reference compound]	no significant effect	four	no significant differences between drug-treated stressed animals and drug- and saline-treated controls	gradual increase of sucrose intake	maintained at similar level	–	–	–	–	–	–	–	–	–	–	–	–
COc1cccc(C(O)C2CCN(CCc3ccc(F)cc3)CC2)c1OC (stereo not drawn) [THE COMPOUND, (+)-α-(2,3-dimethoxyphenyl)-1-[2-(4-fluorophenyl)ethyl]-4-piperidinemethanol]	–	–	–	–	–	greater than 100 nM	greater than 100 nM	no significant effect	not significantly changed	two	comparable to that of vehicle-treated controls and significantly higher than that of vehicle-treated stressed animals	three	comparable to that of vehicle-treated controls and significantly higher than that of vehicle-treated stressed animals	gradually reversed the CMS-induced deficit in sucrose intake	no significant effect	greater than 100 nM	little affinity
